The structures appear in SMILES notation.

Series [1] deals with CHO-K1 cells. Put plainly: Micronucleus assay (MNT) in vitro. The conditions noted are these: 24 hrs treatment, 0.2 µM to 100 µM. The class given is cell-based. The arrangement: key: A: negative, putative negative (micronuclei detected beyond threshold of 60% cyctotoxicity); B: positive. On the procedure: The in vitro MNT assay is performed in CHO-K1 cells due to their stable and welI-characterized karyotype, high sensitivity and suitability for a high content imaging approach. They have a basal spontaneous micronucleus frequency of 3-4%.
24 hrs after plating CHO-K1 cells are treated with test compounds for 24 hrs (in duplicates; fixed concentration ranges from 0.2 µM to 100 µM in 2-fold dilution steps). After a medium change cells are incubated for 24 hrs with Cytochalasin B to block cytokinesis and are then fixed and nuclei / micronuclei visualized with a DNA stain. Images are acquired with the Molecular Devices high content imagers IXU or IXM and are analyzed with the dedicated MetaXpress software micronucleus module. Criteria for scoring of micronuclei (MN) are the following: • diameter of the MN should be less than ⅓ of the main nucleus • MN should be separated from or marginally overlap with main nucleus (= no blebs) • MN should have similar staining as the main nucleus At least 1000 binucleated cells are evaluated per treatment replicate. Mitomycin C is used as reference stimulator of micronucleus formation. Cytotoxicity is evaluated in parallel and defined by comparing total nuclei count in compound-treated samples to neutral control samples treated with vehicle only (1% DMSO) (100% cytotoxicity means all cells are dead or lost).
A test compound is regarded as POSITIVE if generation of micronuclei and exhibition of less than 60% cytotoxicity at the same concentration can be observed.
Compounds are scored only in the soluble concentration range. Experimental data of the compounds shown in Table 1 in the MNT assay are shown in Table 2 below and classified in the following groups: […]

For series [2], the target named is T1, ACSS2 (Homo sapiens, UniProt Q9NR19).
T1 construct: endogenous fatty acid synthesis activity in the human HCT-15 cancer cell line; endogenous in cells; host or cells: HCT-15
The series can be described thus: Cellular assay of 14C acetate incorporation into histones (IC50 ACSS2 cellular histone). The class given is cell-based. The conditions noted are these: HCT-15 cells. The gist of the method:
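Human HCT-15 cells preincubated 1 h with compound (0.25% DMSO final), then pulsed 3 h with 14C-acetate. Histones were acid-extracted (0.2 M HCl, overnight, 4° C) after Triton lysis in sodium-butyrate buffer; incorporated 14C counted by liquid scintillation (CPM) to give IC50.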

For series [3], the target named is T2, human rec ACSS2 (Homo sapiens, UniProt Q9NR19).
T2 construct: myc (C); purchased Origene
The series can be described thus: Biochemical activity ACSS2 assay (AMP-Glo). Particulars: human recombinant ACSS2, AMP-Glo, 180 min at 37° C. The gist of the method:
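C-terminal myc-tagged human recombinant ACSS2 (1 nM) reacted with 100 µM ATP, 100 µM CoA and 500 µM acetate (final) in pH 7.5 Hepes buffer for 180 min at 37° C, compound in 10 concentrations from 30 µM. Released AMP detected by AMP-Glo luminescence. IC50 normalised to inhibitor-free reaction and 5 µM reference inhibitor.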

The target of series [4] is T1, ACSS2. Put plainly: Cellular assay of 14C acetate incorporation into fatty acids (IC50 ACSS2 cellular lipids). The class given is cell-based. Particulars: HCT-15 cells. On the procedure: This protocol describes a cellular assay capable to quantify endogenous fatty acid synthesis activity in the human HCT-15 cancer cell line following the incorporation of extracellularly administered radiolabeled ^14C acetate with a scintillation proximity based read out on extracted fatty acids.
HCT-15 cells were grown in RPMI 1640 (Gibco) supplemented with 2 mM glutamine, 1 mM sodium pyruvate 10 mM HEPES and 10 % FCS (heat-inactivated) passaged every 2-3 days to remain a subconfluent, vital culture. A working cell bank was prepared with each aliquot containing 1x10^7 viable cells. After thawing, these cells are dilute immediately 1:20 in pre-warmed (37° C.) culture medium. Cells are collected by centrifugation at 200 x g for 5 min, and the supernatant is replaced by 30 mL of fresh culture medium per aliquot to obtain a cell suspension containing 350000 cells/ml. From this cell suspension 100 µL are dispersed into each well of a collagen coated 96 well plate, (black, clear bottom, PS, F-bottom, Greiner) and culture for 24 h (37° C., 5% CO2). After incubation the culture medium is removed and the wells are washed once with 100 µL PBS++ (supplemented with Mg^2+/ Ca^2+, Gibco) and 50 µL assay medium (RPMI 1640 + 10 mM HEPES) are added to each well. Compounds serial dilutions are prepared from 10 mM stock solutions in DMSO using a fixed dilution factor (usually 1:3). After preparation of the dilution series in DMSO, the individual dilutions are further diluted in the assay medium. This working dilution is prepared such, that the concentration is 7x of the final concentration in the assay. The maximal DMSO concentration in the final assay is 0.1%.
To each well 10 µL compound working dilution or DMSO blank are added and the cells are cultured for 2 h (37° C., 5% CO2). Then 10 µL AlamarBlue reagent (Invitrogen) containing 14 µCi/mL ^14C-acetate (Perkin Elmer) are added to each well (70 µl total volume) and cells are again cultured for 2 h. Cell viability is verified by measuring the AlamarBlue fluorescence (Tecan Safire, ex: 544 nm / em: 590 nm). After incubation the culture medium is removed and the wells are carefully washed once with cold 100 µL PBS++. For cell lysis and fatty acid recovery 50 µl 0.1 M NaOH and 0.1 % Triton-X100 are added per well. The plate is sealed with PlateLoc (clear peelable heat seal, Agilent) and incubate at 70° C. for 16-24 h. After cooling to room temperature, the plates are centrifuged for 1 min at 1000 rpm and the plate seals are removed. For acidification 150 µL 0.1 M HCl are added to each well, mixed and 150 µL of the mixture are transferred into a 96 well FlashPlate (Perkin Elmer). The plates are sealed with TopSeaI-a (Perkin Elmer). To allow for the fatty acid binding to the well surfaces the plates are incubate for 4 h at 70° C. After cooling to room temperature, the plates are centrifuged for 1 min at 1000 rpm and stored for 0.5-2 h at room temperature in the dark. Radioactivity from ^14C incorporation into fatty acids in the wells is measured as CPM count in a MicroBeta scintillation counter (Perkin Elmer).

T1 sequence (Q9NR19 whole entry): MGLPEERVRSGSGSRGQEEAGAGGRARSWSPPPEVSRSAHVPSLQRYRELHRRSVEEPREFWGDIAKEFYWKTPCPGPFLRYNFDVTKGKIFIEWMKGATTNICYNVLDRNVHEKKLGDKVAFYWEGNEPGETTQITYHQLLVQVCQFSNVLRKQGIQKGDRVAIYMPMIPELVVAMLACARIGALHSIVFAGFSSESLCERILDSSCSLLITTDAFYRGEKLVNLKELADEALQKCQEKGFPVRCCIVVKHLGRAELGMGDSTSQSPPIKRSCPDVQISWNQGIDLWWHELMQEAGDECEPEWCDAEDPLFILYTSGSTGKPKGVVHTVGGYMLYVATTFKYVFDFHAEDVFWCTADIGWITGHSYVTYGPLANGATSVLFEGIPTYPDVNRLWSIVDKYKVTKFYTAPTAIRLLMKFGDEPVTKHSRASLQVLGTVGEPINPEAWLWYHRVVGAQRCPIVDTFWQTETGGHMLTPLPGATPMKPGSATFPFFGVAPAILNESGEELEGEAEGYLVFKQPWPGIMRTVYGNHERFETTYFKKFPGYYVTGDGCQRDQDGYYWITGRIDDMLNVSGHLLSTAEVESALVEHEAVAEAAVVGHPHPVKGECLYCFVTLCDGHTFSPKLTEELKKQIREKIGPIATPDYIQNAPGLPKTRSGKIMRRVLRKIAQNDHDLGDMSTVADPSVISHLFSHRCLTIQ
T2 sequence (Q9NR19 whole entry): as above

In the case of `CCc1c(C(O)(c2ccccc2)c2ccn(C)n2)nc2cc(OC)c(C(=O)Nc3ncn(CC)n3)cn12` (single isomer, unassigned) [Compound 22, 3-Ethyl-2-[hydroxy-(1-methyl-1H-pyrazol-3-yl)-phenyl-methyl]-7-methoxy-imidazo[1,2-a]pyridine-6-carboxylic acid (1-ethyl-1H-[1,2,4]triazol-3-yl)-amide], the MNT result in series [1] is “A”. The IC50 in series [2] and in series [3] was 10 to 100 nM in each case.
In the case of `CCc1c(C(O)(c2ccccc2F)c2ccccc2F)nn2cc(OC)c(C(=O)Nc3ncn(CC)n3)cc12` [Compound 7, 2-[Bis-(2-fluoro-phenyl)-hydroxy-methyl]-3-ethyl-6-methoxy-pyrazolo[1,5-a]pyridine-5-carboxylic acid (1-ethyl-1H-[1,2,4]triazol-3-yl)-amide], the MNT entry in series [1] is recorded as “A”. Further, the IC50 in series [2] and in series [3] was 1 to 10 nM in each case.
As to `CCc1c(C(O)(c2ccccc2)c2ccn(C)n2)nc2cc(OC)c(C(=O)Nc3ncn(CC)n3)cn12` (single isomer, unassigned) [Compound 21, 3-Ethyl-2-[hydroxy-(1-methyl-1H-pyrazol-3-yl)-phenyl-methyl]-7-methoxy-imidazo[1,2-a]pyridine-6-carboxylic acid (1-ethyl-1H-[1,2,4]triazol-3-yl)-amide], the MNT result in series [1] is recorded as “A”. Also, the IC50 (commonly the concentration needed to halve the response being measured) in series [3] was in the range of 100 to 10000 nM.
Consider `CCn1cnc(NC(=O)c2cc3c(nc2C)nc(C(O)(c2ccccc2)c2ccccc2)n3CC)n1` [Compound 108, 1-ethyl-N-(1-ethyl-1H-1,2,4-triazol-3-yl)-2-(hydroxydiphenylmethyl)-5-methyl-1H-imidazo[4,5-b]pyridine-6-carboxamide], for which the IC50 in series [4] lay in the range of 10 to 100 nM; in series [2] it was 1 to 10 nM; in series [3], 1 to 10 nM.
Regarding `CCc1coc(NC(=O)c2cc3c(nc2OC)nc(C(O)(c2ccccc2)c2ccccc2)n3CC)n1` [Compound 59, 1-ethyl-N-(4-ethyl-1,3-oxazol-2-yl)-2-(hydroxydiphenylmethyl)-5-methoxy-1H-imidazo[4,5-b]pyridine-6-carboxamide], the IC50 in series [4] was 0.01 to 1 nM; in series [2] it was 0.01 to 1 nM; in series [3] it was 1 to 10 nM.
Regarding `CCc1nnc(CNC(=O)c2cc3c(nc2OC)nc(C(O)(c2ccccc2)c2ccccc2)n3CC)o1` [Compound 62, 1-ethylN-[(5-ethyl-1,30,4-oxadiazol-2-yl)methyl]-2-(hydroxydiphenylmethyl)-5-methoxy-1H-imidazo[4,5-b]pyridine-6-carboxamide], the IC50 lay within 1 to 10 nM in series [4], 10 to 100 nM in series [2] and 10 to 100 nM in series [3].
For the molecule `CCn1cnc(NC(=O)c2cc3c(nc2OC)nc(C(O)(c2ccccc2)c2ccc(C)s2)n3CC)n1` (racemic) [Compound 51, 1-ethyl-N-(1-ethyl-1H-1,2,4-triazol-3-yl)-2-[hydroxy(5-methylthiophen-2-yl)phenylmethyl]-5-methoxy-1H-imidazo[4,5-b]pyridine-6-carboxamide], the IC50 in series [4] fell in the range of 1 to 10 nM; in series [2] it was 0.01 to 1 nM; in series [3], 1 to 10 nM.
Consider `CCn1cnc(NC(=O)c2cc3c(nc2OC)nc(C(O)(c2ccc(OC(F)F)cc2)c2ccccc2F)n3CC)n1` (single isomer, unassigned) [Compound 75], for which the IC50 in series [4] lay in the range of 0.01 to 1 nM; in series [2] it was 1 to 10 nM; in series [3] it was 0.01 to 1 nM.
In the case of `CCc1nnc(NC(=O)c2cc3c(nc2OC)nc(C(O)(c2ccccc2)c2ccccc2)n3CC)o1` [Compound 64, 1-ethyl-N-(5-ethyl-1,30,4-oxadiazol-2-yl)-2-(hydroxydiphenylmethyl)-5-methoxy-1H-imidazo[4,5-b]pyridine-6-carboxamide], the IC50 in series [4] lay within 0.01 to 1 nM; in series [2] it was 10 to 100 nM; in series [3], 0.01 to 1 nM.
In the case of `CCn1c(C(O)(c2ccccc2)c2ccccn2)nc2nc(OC)c(C(=O)Nc3ncn(CCO)n3)cc21` (racemic) [Compound 61, 1-ethyl-2-[hydroxy(phenyl)(pyridin-2-yl)methyl]-N-[1-(2-hydroxyethyl)-1H-1,2,4-triazol-3-yl]-5-methoxy-1H-imidazo[4,5-b]pyridine-6-carboxamide], the figures for the IC50 in series [4], in series [2] and in series [3] were 0.01 to 1 nM, 10 to 100 nM and 10 to 100 nM, respectively.
Regarding `CCn1cc(NC(=O)c2cc3c(nc2C)nc(C(O)(c2ccccc2F)c2ccccc2F)n3CC)cn1` [Compound 107, 2-[bis(2-fluorophenyl)(hydroxy)methyl]-1-ethyl-N-(1-ethyl-1H-pyrazol-4-yl)-5-methyl-1H-imidazo[4,5-b]pyridine-6-carboxamide], the IC50 in series [4] lay in the range of 10 to 100 nM; in series [2] it was 0.01 to 1 nM; in series [3] it was 1 to 10 nM.
For the molecule `CCn1cnc(NC(=O)c2cnc3nc(C(O)(c4ccccc4)c4ccccc4)n(CC)c3c2)n1` [Compound 111, 1-ethyl-N-(1-ethyl-1H-1,2,4-triazol-3-yl)-2-(hydroxydiphenylmethyl)-1H-imidazo[4,5-b]pyridine-6-carboxamide], the IC50 in series [4] is 100 to 10000 nM; in series [2], 100 to 10000 nM; in series [3] it was 1 to 10 nM.
As for `CCn1cnc(NC(=O)c2cc3c(nc2OC)nc(C(O)(c2cccs2)c2cccs2)n3CC)n1` [Compound 55, 1-ethyl-N-(1-ethyl-1H-1,2,4-triazol-3-yl)-2-[hydroxybis(thiophen-2-yl)methyl]-5-methoxy-1H-imidazo[4,5-b]pyridine-6-carboxamide], the IC50 in series [4] was 0.01 to 1 nM; in series [2] it was 0.01 to 1 nM; in series [3], 1 to 10 nM.
`CCc1c(C(O)(c2ccccc2F)c2ccccc2F)nn2cc(Cl)c(C(=O)Nc3cnn(CC)c3)cc12` [Compound 12, 2-[Bis-(2-fluoro-phenyl)-hydroxy-methyl]-6-chloro-3-ethyl-pyrazolo[1,5-a]pyridine-5-carboxylic acid (1-ethyl-1H-pyrazol-4-yl)-amide]: the IC50 in series [4], in series [2] and in series [3] was 1 to 10 nM in each case.
For `CCn1ccc(NC(=O)c2cc3c(nc2Cl)nc(C(O)(c2ccccc2)c2ccccc2)n3CC)n1` [Compound 83, 5-chloro-1-ethyl-N-(1-ethyl-1H-pyrazol-3-yl)-2-(hydroxydiphenylmethyl)-1H-imidazo[4,5-b]pyridine-6-carboxamide], the IC50 in series [4] is 1 to 10 nM; in series [2] it was 0.01 to 1 nM; in series [3], 1 to 10 nM.

For the origin of these results see patent US20230271956A1, “AMIDE DERIVATIVES” (Merck Patent GmbH, priority 2020, published 2023).
